29 molecules from ChEMBL document CHEMBL3045242, “Synthesis and Insect Growth Regulatory Activity of 1,5-Disubstituted Imidazoles with Non-terpene Chains” (Agric Biol Chem, 1991) can be followed below.

Series [1] has as its system Bombyx mori. The series is described as follows: Juvenile hormone like activity in fourth-instar larvae of Bombyx mori C137 x N137 assessed as induction of precocious metamorphosis at > 40 ug/larvae applied topically. It is filed as functional.
Series [2] deals with Bombyx mori. The series can be described thus: Juvenile hormone like activity in fourth-instar larvae of Bombyx mori C137 x N137 assessed as induction of precocious metamorphosis applied topically. It is filed as functional.
Series [3] has as its system Bombyx mori. The series can be described thus: Juvenile hormone like activity in fourth-instar larvae of Bombyx mori assessed as induction of precocious metamorphosis at 40 ug/larvae applied topically in presence of 0.5 ug of methoprene. It is filed as functional.
Series [4] deals with Bombyx mori. The series can be described thus: Juvenile hormone like activity in fourth-instar larvae of Bombyx mori assessed as induction of precocious metamorphosis at 40 ug/larvae applied topically. It is filed as functional.
In series [5] the test system is Bombyx mori. The series can be described thus: Juvenile hormone like activity in third-instar larvae of Bombyx mori assessed as spun cocoons at fourth-instar at 5 to 160 ug applied topically. It is filed as functional, organism-based.
For series [6], the system named is Bombyx mori. The series is described as follows: Toxicity in third-instar larvae of Bombyx mori at 160 ug applied topically. It is filed as organism-based. The conditions noted are these: in vivo, topical_or_ocular.
Series [7] has as its system Bombyx mori. The series can be described thus: Juvenile hormone like activity in fourth-instar larvae of Bombyx mori assessed as induction of precocious metamorphosis at 40 ug/larvae applied topically in presence of 0.1 ug of methoprene. It is filed as functional.
Series [8] has as its system Bombyx mori. The series can be described thus: Juvenile hormone like activity in third-instar larvae of Bombyx mori assessed as spun cocoons at fifth-instar at 5 to 160 ug applied topically. It is filed as functional, organism-based.
In series [9] the test system is Bombyx mori. The series can be described thus: Juvenile hormone like activity in fourth-instar larvae of Bombyx mori assessed as induction of precocious metamorphosis at 40 ug/larvae applied topically in presence of 1 ug of methoprene. It is filed as functional.
For series [10], the system named is Bombyx mori. The series can be described thus: Juvenile hormone like activity in fourth-instar larvae of Bombyx mori C146 x N137 assessed as induction of precocious metamorphosis applied topically. It is filed as functional.
Series [11] has as its system Bombyx mori. The series is described as follows: Juvenile hormone like activity in fourth-instar larvae of Bombyx mori assessed as induction of precocious metamorphosis at 1 ug applied topically. It is filed as functional.
Series [12] relates to Bombyx mori. The series can be described thus: Juvenile hormone like activity in fourth-instar larvae of Bombyx mori C146 x N137 assessed as induction of precocious metamorphosis at > 40 ug/larvae applied topically. It is filed as functional.
For series [13], the system named is Bombyx mori. The series can be described thus: Juvenile hormone like activity in fourth-instar larvae of Bombyx mori C137 x N137 assessed as induction of precocious metamorphosis at > 60 ug/larvae applied topically. It is filed as functional.

Active and inactive are the calls of the source. No cut-off for these calls is given here.

For `CC(C)(C)Cn1cncc1-c1cccc(OCc2ccccc2)c1`, the Activity in [1] came out at 0%. In addition, in [2], the ED50 turned out to be 40 µg.
As to `CCCn1cncc1-c1cccc(OCc2ccccc2)c1`, the ED50 in [2] was determined as 21.1 µg.
`c1ccc(COc2cccc(-c3cncn3Cc3ccccc3)c2)cc1`: the Activity in [1] amounted to 0%. Besides, in [2], the ED50 came out at 40 µg.
With `CC(C)n1cncc1-c1ccccc1OCc1ccccc1`, the Activity in series [1] turned out to be 0%. In addition, in [2], the ED50 is 40 µg.
For `CC(C)n1cncc1-c1cccc(OCc2ccccc2)c1`, the Activity is listed as 30% in series [3]; 100% in series [4]; “Toxic” in series [6]; 70% in series [7]; 0% in series [9]. In addition, the result in [5] and in series [8] was Active. In addition, the ED50 stood at 0.9 µg in [2] and 13.2 µg in [10].
On to `CC(C)Cn1cncc1-c1cccc(OCc2ccccc2)c1`, for which, in series [2], the ED50 stood at 28 µg.
On to `COC(C)(C)CCC[C@H](C)C/C=C/C(C)=C/C(=O)OC(C)C` [METHOPRENE], for which the Activity in series [11] was 0%.
`CC(C)Cn1cncc1-c1cccc(Oc2ccccc2)c1`: the result in [5] and in series [8] was Active. In addition, the ED50 in series [2] was found to be 14.7 µg.
On to `CC(C)n1cncc1-c1cccc(OCc2cccc(Cl)c2)c1`, for which, in [12], the Activity stood at 5%. For the same molecule, the ED50 in series [10] is over 40 µg.
Take `CC(Oc1cccc(-c2cncn2C(C)C)c1)c1ccccc1` (stereo unspecified): the Activity in [12] turned out to be 0%. The ED50 in [10] is over 40 µg.
Turning to `CC(C)n1cncc1-c1cccc(O)c1`, the Activity in series [1] was 0%. Moreover, the ED50 in series [2] is over 40 µg.
As for `CC(C)n1cncc1-c1cccc(OCc2ccccc2Cl)c1`, the Activity in series [12] came out at 0%. The ED50 in [10] was over 40 µg.
On to `CC(C)=CCC/C(C)=C/COc1cccc(-c2cncn2CC(C)C)c1`, for which the Activity in series [1] was found to be 0%. Further, the ED50 in [2] is over 40 µg.
For `CCCCCCOc1cccc(-c2cncn2C(C)C)c1`, the Activity in [12] was found to be 35%. Besides, the ED50 in series [10] is over 40 µg.
Consider `CC(C)n1cncc1-c1cccc(OCc2ccc(F)cc2)c1`, for which the ED50 in series [10] was over 40 µg.
With `CCCCCCCCOc1cccc(-c2cncn2C(C)C)c1`, the Activity in series [12] amounted to 25%. Besides, in [10], the ED50 is over 40 µg.
In the case of `CC(C)n1cncc1-c1cccc(OCc2ccc(Cl)cc2)c1`, the Activity in series [12] is given as 20%. Besides, the ED50 in [10] was over 40 µg.
For the molecule `COc1cccc(-c2cncn2C(C)C)c1`, in series [12], the Activity stood at 0%. For the same molecule, the ED50 in series [10] is over 40 µg.
For the molecule `CCn1cncc1-c1cccc(OCc2ccccc2)c1`, the ED50 in series [2] was determined as 30.2 µg.
Turning to `CC(C)n1cncc1-c1cccc(OCCc2ccccc2)c1`, the Activity in series [12] came out at 20%. Besides, the ED50 in series [10] is over 40 µg.
Regarding `Cn1cncc1-c1cccc(OCc2ccccc2)c1`, the ED50 in series [2] was 60 µg. Also, the Activity in series [13] came to 0%.
As for `CC(C)n1cncc1-c1ccc(OCc2ccccc2)cc1`, the Activity in series [1] came out at 30%. In addition, the ED50 in [2] was found to be 40 µg.
Regarding `CC(C)=CCC/C(C)=C/COc1cccc(-c2cncn2C(C)C)c1`, the Activity in series [12] is on record as 0%. The ED50 in series [10] was over 40 µg.
As for `CCCCn1cncc1-c1cccc(OCc2ccccc2)c1`, the Activity in series [1] was found to be 0%. Also, the ED50 in series [2] amounted to 40 µg.
As for `COc1cccc(COc2cccc(-c3cncn3C(C)C)c2)c1`, the Activity in series [12] was found to be 25%. The ED50 in [10] is over 40 µg.
`CC(C)n1cncc1-c1cccc(Oc2ccccc2)c1`: the results for the ED50 in series [2] and in series [10] were 21.6 µg and 53.3 µg, respectively.
Turning to `COc1ccc(COc2cccc(-c3cncn3C(C)C)c2)cc1`, the Activity in [12] came to 15%. For the same molecule, the ED50 in series [10] was over 40 µg.
As to `CC(C)Cn1cncc1-c1ccc(Oc2ccccc2)cc1`, in series [6], the Activity result is recorded as “Toxic”. In series [2], the ED50 amounted to 55.5 µg.
For the molecule `CC(C)COc1cccc(-c2cncn2C(C)C)c1`, the Activity in series [12] is listed as 35%. In addition, the ED50 in [10] is over 40 µg.
